Earlier results as cited in patent US20240207289A1 (priority 2022, published 2024).

Target: Cannabinoid-2 (CB2R) receptor (Homo sapiens, UniProt P34972)
Sequence (P34972 whole entry): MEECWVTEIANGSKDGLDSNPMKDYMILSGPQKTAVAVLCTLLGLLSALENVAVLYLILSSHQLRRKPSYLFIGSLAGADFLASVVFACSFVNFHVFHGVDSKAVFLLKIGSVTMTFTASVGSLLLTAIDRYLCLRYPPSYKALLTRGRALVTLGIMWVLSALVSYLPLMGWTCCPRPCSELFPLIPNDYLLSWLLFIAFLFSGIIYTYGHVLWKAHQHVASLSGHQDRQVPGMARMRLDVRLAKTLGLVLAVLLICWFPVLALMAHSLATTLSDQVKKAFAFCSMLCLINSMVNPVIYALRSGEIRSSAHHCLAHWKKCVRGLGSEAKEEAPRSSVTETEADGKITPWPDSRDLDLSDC

CCCCCc1cc(O)c2c(c1)OC(C)(C)[C@@H]1CCC(C)=C[C@@H]21 [THC, delta-9-tetrahydrocannabinol]
activity at Cannabinoid-2 receptor: weak partial agonist activity
